Assay results as given in US5686606A, “UCF116 compounds” (Kyowa Hakko Kogyo, Co., Ltd., priority 1994, dated 1997).
Values after ≈ are worked out from the molar mass of the structure shown. Like-named read-outs stand apart in the source and are kept apart here.

Experiments:
[1] = system: HR-3Y1 cells; assay: Growth inhibition against HR-3Y1 cells; format: cell-based; conditions: 72 hours, 37° C., Giemsa staining
Experimental: An HR-3Y1 cell suspension (3.0×10^4 cells/ml) prepared by suspending HR-3Y1 cells in a medium comprising MEM medium (Nissui Pharmaceutical Co., Ltd.) and 10% fetal calf serum (hereinafter referred to as Medium A) was put into wells of a 96-well microtiter plate in an amount of 0.1 ml per well. After the cells in the plate were cultivated at 37° C. for 20 hours in a CO2 -incubator, a test compound appropriately diluted with Medium A was added to the wells in an amount of 0.1 ml per well. The cells were further cultivated at 37° C. for 72 hours in the CO2 -incubator. After the cultivation supernatant was removed, the residue was washed once with physiological saline and then treated with 0.1 ml of methanol for 10 minutes to fix the cells. The cells were stained with 0.1 ml of Giemsa's staining solution [Giemsa's staining solution, Merck Art 9204 (Merck & Co., Inc.): physiological saline=1:10] for 5 minutes. After the staining solution was removed, the residue was washed once with 0.2 ml of water. Then, the dye was extracted with 0.2 ml of 0.1 N hydrochloric acid and the absorbance was measured at 620 nm with a microplate reader.
The concentration of the test compound at which the growth of the cells is inhibited by 50% (IC50) was calculated by comparing the absorbance of untreated cells with those of the cells treated with the test compound at known concentrations.

[2] = system: Candida albicans ATCC 10231; assay: Antibacterial activity (MIC), agar dilution method; format: cell-based
Experimental: (§1) The antibacterial activity was determined by the agar dilution method using a medium (pH 7) which comprises 3 g/l Bacto-tryptone (Difco Laboratories),3 g/l meat extract, 1 g/f yeast extract, 1 g/l glucose and 16 g/l agar.

[3] = system: Enterococcus faecium ATCC 10541; assay: Antibacterial activity (MIC), agar dilution method; format: cell-based
Experimental: as §1

[4] = system: Staphylococcus aureus ATCC 6538P; assay: Antibacterial activity (MIC), agar dilution method; format: cell-based; conditions: ATCC6538P, pH 7
Experimental: as §1

[5] = Solubility; format: physicochemical
[6] = system: isogenic tumor in K-BALB mice; assay: Antitumor activity against isogenic tumor system in K-BALB mice; format: in vivo; conditions: 10.0 mg/kg, intraperitoneal, 5 consecutive days from 7th day after s.c. transplantation, BALB/c mouse
Experimental: The antitumor activity against an isogenic tumor system in K-BALB mice was measured according to the method described in Proc. Natl. Acad. Sci., 90, 2281 (1993). That is, an isogenic tumor in K-BALB mice was resected from a donor mouse, and a 2×2×2 mm (8 mm^3) tumor piece was subcutaneously transplanted into a BALB/c mouse at the ventral side using a trocar. After the graft survival was confirmed on the 7th day after the transplantation, a test compound was intraperitoneally administered for 5 consecutive days from the same day. The longer diameter and the shorter diameter of the tumor were measured with slide calipers, and the tumor volume was calculated according to the formula: (longer diameter)×(shorter diameter)^2 /2 [Cancer Chemother. Rep., Part III, 3, 1 (1972)]. The antitumor effect was evaluated in terms of T/C, the ratio of the tumor volume of a test compound-treated group (T) to that of an untreated group (C).

[7] = system: BALB 3T3/H-ras cells; assay: Growth inhibition against BALB 3T3/H-ras cells; format: cell-based; conditions: Mus musculus, 72 hours, 37° C., Giemsa staining
Experimental: A BALB 3T3/H-ras cell suspension (3.0×10^4 cells/ml) prepared by suspending BALB 3T3/H-ras cells ([…]) in a medium comprising MEM medium (Nissui Pharmaceutical Co., Ltd.) and 10% fetal calf serum (hereinafter referred to as Medium A) was put into wells of a 96-well microtiter plate in an amount of 0.1 ml per well. After the cells in the plate were cultivated at 37° C. for 20 hours in a CO2 -incubator, a test compound appropriately diluted with Medium A was added to the wells in an amount of 0.1 ml per well. The cells were further cultivated at 37° C. for 72 hours in the CO2 -incubator. After the cultivation supernatant was removed, the residue was washed once with physiological saline and then treated with 0.1 ml of methanol for 10 minutes to fix the cells. The cells were stained with 0.1 ml of Giemsa's staining solution [Giemsa's staining solution, Merck Art 9204 (Merck & Co., Inc.): physiological saline=1:10] for 5 minutes. After the staining solution was removed, the residue was washed once with 0.2 ml of water. Then, the dye was extracted with 0.2 ml of 0.1 N hydrochloric acid and the absorbance was measured at 620 nm with a microplate reader. […]

[8] = ATCC10231, Candida albicans ATCC 10231, agar dilution, pH 7, read-out: MIC
[9] = ATCC10541, Enterococcus faecium ATCC 10541, agar dilution, pH 7, read-out: MIC
[10] = Staphylococcus aureus ATCC 6538P, agar dilution, read-out: MIC

Structure (SMILES) | IC50 [1] | MIC [2, 8] | MIC [3, 9] | MIC [4, 10] | Solubility in DMSO, chloroform, acetone and ethyl acetate [5] | Solubility in water and hexane [5] | T/C (ratio of tumor volume of treated group to untreated group) [6] | IC50 [7] | MIC ([2]; Candida albicans, ATCC10231, pH 7) | MIC ([3]; Enterococcus faecium, ATCC10541, pH 7) | MIC ([4]; Staphylococcus aureus)
CO[C@H]1/C=C/C=C/C=C/C[C@H](OC(=O)C2(NC(=O)C3CCCCC3)CC2)[C@H](C)[C@@H](O)/C(C)=C\CCC2=CC(=O)C=C(NC(=O)C1)C2=O [UCF116-A3] | 0.95 µM | 41.7 µg/mL (≈ 64.3 µM) | 83.3 µg/mL (≈ 128 µM) | 41.7 µg/mL (≈ 64.3 µM) | Soluble | insoluble | – | – | – | – | –
CO[C@H]1/C=C/C=C/C=C/C[C@H](OC(=O)[C@@H](C)NC(=O)C2=CCCCC2)[C@H](C)[C@@H](O)/C(C)=C\CCc2cc(O)cc(c2O)NC(=O)C1 [UCF116-B] | 0.35 µM | 20.8 µg/mL (≈ 32.7 µM) | 41.7 µg/mL (≈ 65.5 µM) | 41.7 µg/mL (≈ 65.5 µM) | Soluble | insoluble | 0.25 | 0.39 µM | – | – | –
C/C=C(\C)C(=O)N[C@H](C)C(=O)O[C@H]1C/C=C/C=C/C=C/[C@H](OC)CC(=O)Nc2cc(O)cc(c2O)CC/C=C(/C)[C@H](O)[C@H]1C [UCF116-D] | – | – | – | – | Soluble | insoluble | – | 0.66 µM | 83.3 µg/mL (≈ 136 µM) | 83.3 µg/mL (≈ 136 µM) | 83.3 µg/mL (≈ 136 µM)
